{"source": "patent US20180042249A1", "about": "“METHOD FOR REDUCTION IN MICROBIAL ACTIVITY IN POULTRY PROCESSING” (Zeco, Inc., priority 2014, published 2018)", "test_system": "bacterial count on poultry carcasses (chicken samples)", "assay": "Antimicrobial efficacy of elevated concentration and temperature application of PAA to poultry carcasses (average bacterial count reduction)", "type": "cell-based", "protocol": "As summarized in Table 1 below, ten chicken samples were treated with an elevated peroxyacetic acid concentration at an elevated temperature for a specified period of time using either an equilibrium peroxyacetic acid intervention solution or a pH modified peroxyacetic acid intervention solution. […] The treated poultry carcasses were measured for the average bacterial count reduction as a result of the elevated peroxyacetic acid concentration and elevated temperature."}
{"substance": "peroxyacetic acid [PAA]", "values": [{"measurement": "Average % Reduction (bacterial count)", "setting": "PAA 500 ppm, 72 °F, 10 seconds exposure, pH 7.7 (pH modified PAA solution)", "value": 97.34, "unit": "%"}, {"measurement": "Average % Reduction (bacterial count)", "setting": "PAA 500 ppm, 72 °F, 10 seconds exposure, pH ~3 (equilibrium PAA solution)", "value": 70.57, "unit": "%"}, {"measurement": "Average % Reduction (bacterial count)", "setting": "PAA 500 ppm, 125 °F, 7 seconds exposure, pH 7.7 (pH modified PAA solution)", "value": 93.68, "unit": "%"}, {"measurement": "Average % Reduction (bacterial count)", "setting": "PAA 500 ppm, 125 °F, 7 seconds exposure, pH ~3 (equilibrium PAA solution)", "value": 77.26, "unit": "%"}, {"measurement": "Average % Reduction (bacterial count)", "setting": "PAA 600 ppm, 125 °F, 7 seconds exposure, pH 7.7 (pH modified PAA solution)", "value": 89.34, "unit": "%"}, {"measurement": "Average % Reduction (bacterial count)", "setting": "PAA 600 ppm, 125 °F, 7 seconds exposure, pH ~3 (equilibrium PAA solution)", "value": 61.94, "unit": "%"}, {"measurement": "Average % Reduction (bacterial count)", "setting": "PAA 700 ppm, 125 °F, 7 seconds exposure, pH 7.7 (pH modified PAA solution)", "value": 97.87, "unit": "%"}, {"measurement": "Average % Reduction (bacterial count)", "setting": "PAA 700 ppm, 125 °F, 7 seconds exposure, pH ~3 (equilibrium PAA solution)", "value": 92.27, "unit": "%"}, {"measurement": "bacterial count reduction", "setting": "elevated PAA concentration and temperature, period of time of at least 7 seconds (summary of Table 1)", "value": "≥ 60", "unit": "%"}]}
